Our source for the MIC values is DBAASP.

≈ marks a conversion by molar mass, not a printed value.

Some test systems named below: Escherichia coli K91BK; Micrococcus luteus; Saccharomyces cerevisiae; Klebsiella pneumoniae; Pseudomonas aeruginosa; Staphylococcus aureus; Acinetobacter baumannii; Enterococcus faecalis; Escherichia coli.
Common to all, as to test: ≥ marks a high value that may be exact or a test limit, other limits are often not marked, values filed in µg/mL are converted to µM
The subject of assay [1] is Bacillus subtilis var. niger ATCC 9372.
Assay [2] concerns Bacillus anthracis Sterne 34F2.
Assay [3] deals with Pseudomonas aeruginosa ATCC 15692.
In assay [4] the test system is Staphylococcus aureus ATCC 25923.
For assay [5], the system named is Escherichia coli ATCC 25922.
The test system of assay [6] is Micrococcus luteus ATCC 9341.
The test system of assay [7] is Clavibacter michiganensis subsp. michiganensis DSM 46294.
Assay [8] relates to Pseudomonas syringae pv. tomato DC3000.
Assay [9] has as its system Staphylococcus aureus 90857.
The test system of assay [10] is Pseudomonas syringae pv. syringae DSM 10604.
In assay [11] the test system is Pectobacterium carotovorum subsp. carotovorum DSM 30168.
Assay [12] concerns Xanthomonas vesicatoria DSM 50861.
Assay [13] concerns Pseudomonas corrugata DSM 7228.
For assay [14], the system named is Staphylococcus epidermidis.

By MIC is commonly meant the lowest concentration found to suppress growth. High values mean a less susceptible organism, low ones a more susceptible organism. For the molecule `CC[C@H](C)[C@H](NC(=O)[C@H](CCCCN)NC(=O)[C@H](CO)NC(=O)[C@H](Cc1ccccc1)NC(=O)[C@H](CC(C)C)NC(=O)[C@H](CCCCN)NC(=O)[C@H](CCC(=O)O)NC(=O)[C@H](CC(C)C)NC(=O)[C@H](CCCN=C(N)N)NC(=O)[C@H](CCCCN)NC(=O)[C@H](Cc1ccccc1)NC(C)=O)C(=O)N[C@@H](Cc1c[nH]c2ccccc12)C(=O)N[C@@H](CC(N)=O)C(=O)N[C@@H](Cc1c[nH]c2ccccc12)C(=O)N[C@@H](CCCCN)C(N)=O` [FKRLEKLFSKIWNWK], the MIC in [1] is 6.25 µM (≈ 12.9 µg/mL); in assay [2], 14.9 µM (≈ 30.8 µg/mL); against Escherichia coli K91BK, at least 100 µM.
Consider `CC[C@H](C)[C@H](NC(=O)[C@H](Cc1ccccc1)NC(=O)CNC(=O)[C@H](CCCCN)NC(=O)[C@H](C)NC(=O)[C@H](Cc1ccccc1)NC(=O)[C@H](CCCCN)NC(=O)[C@H](CCCCN)NC(=O)[C@H](C)NC(=O)[C@H](CO)NC(=O)[C@H](Cc1cnc[nH]1)NC(=O)[C@H](C)NC(=O)[C@@H](NC(=O)[C@H](CCC(=O)O)NC(=O)[C@H](CCCCN)NC(=O)[C@H](CC(C)C)NC(=O)CN)C(C)C)C(=O)N[C@@H](CO)C(=O)NCC(=O)N[C@@H](CC(C)C)C(=O)N[C@H](C(=O)NCC(=O)N[C@@H](CO)C(=O)O)[C@@H](C)O` [GLKEVAHSAKKFAKGFISGLTGS], for which the MIC is at least 32 µM against Micrococcus luteus; at least 256 µM in [3]; above 256 µM in assay [4]; 64 µM (≈ 149 µg/mL) in assay [5]; at least 128 µM against Saccharomyces cerevisiae.
Taken in the same sequence, the figures for `CC[C@H](C)[C@H](NC(=O)[C@H](C)NC(=O)[C@H](CCCCN)NC(=O)[C@H](C)NC(=O)[C@H](C)NC(=O)[C@H](CCCCN)NC(=O)CNC(=O)[C@H](Cc1ccccc1)NC(=O)[C@H](C)NC(=O)[C@@H](NC(=O)CNC(=O)[C@H](C)NC(=O)[C@H](CCCCN)NC(=O)[C@@H](NC(=O)[C@H](C)NC(=O)[C@H](CCSC)NC(=O)CN)[C@@H](C)O)[C@@H](C)O)C(=O)N[C@H](C(=O)NCC(=O)N[C@@H](C)C(=O)N[C@@H](C)C(=O)N[C@@H](CC(C)C)C(=O)O)[C@@H](C)CC` [GMATKAGTAFGKAAKAIIGAAL] were 2 µM (≈ 4.04 µg/mL), at least 128 µM, above 256 µM, 16 µM (≈ 32.3 µg/mL) and at least 64 µM.
Take `CC[C@H](C)[C@H](N)C(=O)N[C@@H](CC(C)C)C(=O)N1CCC[C@H]1C(=O)N[C@@H](C)C(=O)N[C@@H](CCCCN)C(=O)N[C@@H](Cc1c[nH]c2ccccc12)C(=O)N1CCC[C@H]1C(=O)N[C@@H](Cc1c[nH]c2ccccc12)C(=O)N[C@@H](Cc1c[nH]c2ccccc12)C(=O)N1CCC[C@H]1C(=O)N[C@@H](Cc1c[nH]c2ccccc12)C(=O)N[C@@H](CCCN=C(N)N)C(=O)N[C@@H](CCCN=C(N)N)C(N)=O` [ILPAKWPWWPWRR]: the MIC in [6] came to 0.4 µM (≈ 0.716 µg/mL).
For `CC(=O)N[C@@H](CCCCN)C(=O)N[C@@H](CC(C)C)C(=O)N[C@@H](Cc1c[nH]c2ccccc12)C(=O)N[C@@H](CCCCN)C(=O)N[C@@H](CCCCN)C(=O)N[C@@H](Cc1c[nH]c2ccccc12)C(=O)N[C@@H](CCCCN)C(=O)N[C@@H](CCCCN)C(=O)N[C@@H](Cc1c[nH]c2ccccc12)C(=O)N[C@@H](CC(C)C)C(=O)N[C@@H](CCCCN)C(N)=O` [KLWKKWKKWLK], the MIC in [1] is 6.25 µM (≈ 10.1 µg/mL); in assay [2], at least 100 µM; with Escherichia coli K91BK, at least 100 µM.
Take `CC[C@H](C)[C@H](NC(=O)[C@H](CCCN=C(N)N)NC(=O)[C@H](CCCN=C(N)N)NC(=O)[C@H](CC(C)C)NC(=O)[C@H](CC(N)=O)NC(=O)[C@H](CCCCN)NC(C)=O)C(=O)N[C@H](C(=O)N[C@@H](CCCN=C(N)N)C(=O)N[C@@H](CCCCN)C(=O)N[C@H](C(=O)N[C@H](C(=O)N[C@@H](Cc1cnc[nH]1)C(=O)N[C@H](C(=O)N[C@H](C(=O)N[C@@H](CCCCN)C(=O)N[C@@H](CCCCN)C(=O)N[C@@H](Cc1ccc(O)cc1)C(=O)NCC(N)=O)[C@@H](C)CC)[C@@H](C)CC)[C@@H](C)CC)[C@@H](C)CC)[C@@H](C)O` [KNLRRITRKIIHIIKKYG]: the MIC in [1] was 1.56 µM (≈ 3.58 µg/mL); in [2] it was 25 µM (≈ 57.3 µg/mL); in the assay with Escherichia coli K91BK, at least 100 µM.
For the molecule `CC[C@H](C)[C@H](NC(=O)[C@H](CC(C)C)NC(=O)[C@H](CCCN=C(N)N)NC(=O)[C@H](CCCN=C(N)N)NC(=O)[C@H](CC(C)C)NC(=O)[C@@H](NC(=O)[C@H](CCCN=C(N)N)NC(=O)[C@H](CCCN=C(N)N)NC(=O)[C@@H](NC(=O)[C@@H](NC(=O)[C@H](CCCN=C(N)N)NC(=O)[C@@H](N)CC(C)C)[C@@H](C)CC)[C@@H](C)CC)[C@@H](C)CC)C(N)=O` [LRIIRRILRRLI], the MIC in [7] came to 1.57 µM (≈ 2.5 µg/mL); in [8], 0.628 µM (≈ 0.999 µg/mL); in assay [9], 25 µM (≈ 39.8 µg/mL); in assay [10], 1.57 µM (≈ 2.5 µg/mL); in assay [11], 1.57 µM (≈ 2.5 µg/mL); in [12], 0.628 µM (≈ 0.999 µg/mL). This molecule also displayed an MIC in [13] of 1.57 µM (≈ 2.5 µg/mL).
Take `CC[C@H](C)[C@H](NC(=O)[C@H](CCCCN)NC(=O)[C@H](CCCCN)NC(=O)[C@H](CC(C)C)NC(=O)[C@H](CCCCN)NC(=O)[C@H](CCCN=C(N)N)NC(=O)[C@@H](N)CC(C)C)C(=O)N[C@@H](CC(C)C)C(=O)N[C@@H](CCCCN)C(=O)N[C@@H](CCCCN)C(=O)N[C@@H](CC(C)C)C(=O)N[C@@H](Cc1ccccc1)C(N)=O` [LRKLKKILKKLF]: the MIC in [7] turned out to be 0.164 µM (≈ 0.25 µg/mL); in [8] it was 0.327 µM (≈ 0.5 µg/mL); in assay [9], 6.25 µM (≈ 9.54 µg/mL); in assay [10] it was 0.164 µM (≈ 0.25 µg/mL); in [11], 1.64 µM (≈ 2.5 µg/mL); in assay [12], 0.0654 µM (≈ 0.0999 µg/mL). In addition, in [13], the MIC came out at 0.164 µM (≈ 0.25 µg/mL).
For the molecule `CC[C@H](C)[C@H](NC(=O)[C@@H](NC(=O)[C@H](CCCCN)NC(=O)[C@H](CCCCN)NC(=O)[C@@H](NC(=O)[C@@H](NC(=O)[C@H](CCCCN)NC(=O)[C@H](C)NC(=O)[C@H](CCCCN)NC(=O)[C@H](CCCCN)NC(=O)[C@H](CCCCN)NC(=O)[C@@H](N)CCCN=C(N)N)[C@@H](C)CC)[C@@H](C)CC)[C@@H](C)CC)C(N)=O` [RKKKAKIIKKII], the MIC is 6.82 µM (≈ 9.99 µg/mL) in [7]; 6.82 µM (≈ 9.99 µg/mL) in assay [8]; at least 62.5 µM in assay [9]; 0.682 µM (≈ 0.999 µg/mL) in [10]; 6.82 µM (≈ 9.99 µg/mL) in assay [11]; 6.82 µM (≈ 9.99 µg/mL) in assay [12]. In addition, the MIC in assay [13] amounted to 6.82 µM (≈ 9.99 µg/mL).
In the case of `CC[C@H](C)[C@H](NC(=O)CNC(=O)[C@H](CCCN=C(N)N)NC(=O)[C@H](Cc1ccc(O)cc1)NC(=O)[C@H](CC(C)C)NC(=O)[C@H](Cc1cnc[nH]1)NC(=O)CNC(=O)[C@H](Cc1ccccc1)NC(=O)[C@@H](N)Cc1c[nH]c2ccccc12)C(=O)N[C@H](C(=O)N[C@@H](CO)C(=O)N[C@H](C(=O)N[C@H](C(=O)N[C@@H](CCCCN)C(=O)N[C@@H](Cc1cnc[nH]1)C(=O)N[C@H](C(=O)N[C@@H](Cc1cnc[nH]1)C(=O)NCC(=O)N[C@@H](CC(C)C)C(=O)N[C@@H](CC(C)C)C(=O)N[C@@H](CO)C(=O)NCC(=O)O)C(C)C)C(C)C)C(C)C)[C@@H](C)O` [WFGHLYRGITSVVKHVHGLLSG], the MIC in assay [14] came to 10.3 µM (≈ 25.4 µg/mL); against Klebsiella pneumoniae, 21 µM (≈ 51.7 µg/mL); against Pseudomonas aeruginosa, 10.3 µM (≈ 25.4 µg/mL); against Staphylococcus aureus, 20.6 µM (≈ 50.8 µg/mL); in the assay on Acinetobacter baumannii, 5.2 µM (≈ 12.8 µg/mL); against Enterococcus faecalis, 10.3 µM (≈ 25.4 µg/mL). The molecule further showed an MIC in the assay with Escherichia coli of 5.2 µM (≈ 12.8 µg/mL).
